Values of other authors as cited in patent US6629835B2, “Combinations of diterpene triepoxide lactones and ditepene lactones or triterpenes for synergistic inhibition of cyclooxygenase-2” (MetaProteomics, LLC, priority 2000, dated 2003).

Conditions: gastrointestinal disturbance, nausea and vomiting, hypotension, edema; cited from earlier work

Compound: CC(C)[C@]12O[C@H]1[C@@H]1O[C@]13[C@]1(O[C@H]1C[C@H]1C4=C(CC[C@@]13C)C(=O)OC4)[C@@H]2O [Triptolide]
- Patients showing some type of side effects: Approximately 28%
